Data from patent publication US9303049B2, “Nanodot and method for manufacturing the same” (National Sun Yat-sen University, priority 2013, dated 2016).

Assays:
SK-Hep-1 cell [1] = experiment: Bioprobing and bioimaging, fluorescence microscopy of SK-Hep-1 cell; type: cell-based; settings: for fluorescence signal in SK-Hep-1 cell: 48 hours incubation, nanodot solutions 20 mM, different excitation light sources
Protocol: SK-Hep-1 cell was incubated under 37° C. for 12 hours (overnight). Then avidin (purchased from Sigma) was added into the SK-Hep-1 cell to form a cell culture. […] Then the cell was fixed by paraformaldehyde.
SK-Hep-1 cell was incubated under 37° C. for 12 hours (overnight). Then avidin-FITC (purchased from Sigma) was added into the SK-Hep-1 cell to form a cell culture.
SK-Hep-1 cell was incubated under 37° C. for 12 hours (overnight). Then the 3-aminopropyltriethoxysilane nanodot solution (20 mM) prepared in example 4 and the avidin modified 3-aminopropyltriethoxysilane nanodot solution (20 mM) were added into this SK-Hep-1 cell to form two cell cultures respectively. […] Then the cell was fixed by paraformaldehyde. […] Referring to FIG. 10, FIGS. 10(a)-(d) show the SK-Hep-1 cell added with 3-aminopropyltriethoxysilane nanodot solution. FIGS. 10(m)-(p) show the SK-Hep-1 cell added with avidin modified 3-aminopropyltriethoxysilane nanodot solution. […] Therefore, the fluorescence signal of FIGS. 10(b)-(d) and (n)-(p) resulted from the nanodot. In addition, FIGS. 10(i)-(I) show the SK-Hep-1 cell added with avidin-FITC. […] FIGS. 13(a)-(c) show the images of the SK-Hep-1 cell added with 3-aminopropyltriethoxysilane nanodot solution and continuously irradiated with excitation light, wherein FIGS. 13(a)-(c) are the images observed at 0 minutes, 2 minutes and 5 minutes respectively. FIGS. 13(d)-(f) show the images of the SK-Hep-1 cell added with avidin-FITC and continuously irradiated with excitation light, wherein FIGS. 13(d)-(f) are the images observed at 0 minutes, 2 minutes and 5 minutes respectively. FIGS. 13(g)-(i) show the images of the SK-Hep-1 cell added with avidin modified 3-aminopropyltriethoxysilane nanodot solution and continuously irradiated with excitation light, wherein FIGS. 13(g)-(i) are the images observed at 0 minutes, 2 minutes and 5 minutes respectively. […] Therefore, the nanodot has better photo stability.

SK-Hep-1 cell [2] = experiment: Stability measurement of fluorescence under continuous excitation light in SK-Hep-1 cell; type: cell-based; settings: continuously irradiated with excitation light, observed at 2 minutes and 5 minutes versus 0 minutes
Protocol: SK-Hep-1 cell was incubated under 37° C. for 12 hours (overnight). Then the 3-aminopropyltriethoxysilane nanodot solution (20 mM) prepared in example 4 and the avidin modified 3-aminopropyltriethoxysilane nanodot solution (20 mM) were added into this SK-Hep-1 cell to form two cell cultures respectively. […] Then the cell was fixed by paraformaldehyde. […] Referring to FIG. 10, FIGS. 10(a)-(d) show the SK-Hep-1 cell added with 3-aminopropyltriethoxysilane nanodot solution. FIGS. 10(m)-(p) show the SK-Hep-1 cell added with avidin modified 3-aminopropyltriethoxysilane nanodot solution. […] Therefore, the fluorescence signal of FIGS. 10(b)-(d) and (n)-(p) resulted from the nanodot. In addition, FIGS. 10(i)-(I) show the SK-Hep-1 cell added with avidin-FITC. […] FIGS. 13(a)-(c) show the images of the SK-Hep-1 cell added with 3-aminopropyltriethoxysilane nanodot solution and continuously irradiated with excitation light, wherein FIGS. 13(a)-(c) are the images observed at 0 minutes, 2 minutes and 5 minutes respectively. FIGS. 13(d)-(f) show the images of the SK-Hep-1 cell added with avidin-FITC and continuously irradiated with excitation light, wherein FIGS. 13(d)-(f) are the images observed at 0 minutes, 2 minutes and 5 minutes respectively. […]

avidin
fluorescence signal in SK-Hep-1 cell (SK-Hep-1 cell [1]): no fluorescence signal

avidin modified 3-aminopropyltriethoxysilane nanodot: 3-aminopropyltriethoxysilane nanodot of example 4 modified with avidin
fluorescence after continuous irradiation (photo stability) (SK-Hep-1 cell [2]): only became slightly weak | fluorescence signal in SK-Hep-1 cell (SK-Hep-1 cell [1]): significant multiphoton fluorescence with red, green and blue lights emitted | effect of avidin modification on entry into cells (SK-Hep-1 cell [1]; FIGS. 10(n)-(p) compared with FIGS. 10(b)-(d), SK-Hep-1 cell, 48 hours): enhance the efficiency of the nanodot to enter into cells and aggregate in cells

avidin-FITC: avidin-FITC purchased from Sigma; FITC is a conventional organic fluorescent dye widely applied in bioimaging
fluorescence after continuous irradiation (photo stability) (SK-Hep-1 cell [2]): nearly no fluorescence | fluorescence signal in SK-Hep-1 cell (SK-Hep-1 cell [1]): could not emit blue and red fluorescence
